Experimental data reported in patent US20090197899A1, “3-(Dihydro-1H-pyrazolo[4,3-d]pyrimidin-5-yl)-4-propoxybenzenesulfonamide Derivatives and Methods of Use” (Concert Pharmaceuticals Inc., priority 2006, published 2009).

Experiment: Metabolic stability of test compounds using human liver microsomes
Format: in vitro ADME
Settings: for differentiation of t1/2 (longer) as compared to udenafil: human liver microsomes, assay conditions 0.5 mg/mL, 1 µM test compd; for half-life at 1 µM: pooled human liver microsomes, in vitro t1/2, 0.5 mg/mL human liver microsomes, 1 μM test compound, 2 mM NADPH, pH 7.4, 37° C., experiment run an additional three times, read-out: Avg t1/2 (min) ± SD
Experimental: Determination of Metabolic Stability of Test Compounds using Human Liver Microsomes. The metabolic stability of compounds of the invention was tested using pooled liver microsomal incubations. Full scan LC-MS analysis was then performed to detect major metabolites. Samples of the test compounds, exposed to pooled human liver microsomes, were analyzed using HPLC-MS (or MS/MS) detection. For determining metabolic stability, multiple reaction monitoring (MRM) was used to measure the disappearance of the test compounds. For metabolite detection, Q1 full scans were used as survey scans to detect the major metabolites.
Experimental Procedures. Human liver microsomes (“HLM”; 20 mg/mL) were obtained from Xenotech, LLC (Lenexa, Kans.). β-nicotinamide adenine dinucleotide phosphate, reduced form (NADPH), magnesium chloride (MgCl2), and dimethyl sulfoxide (DMSO) were purchased from Sigma-Aldrich.
Stock solutions (7.5 mM) of Compounds 100, 103, 108 and 210 and udenafil were prepared in DMSO. The 7.5 mM stock solutions were diluted to 50 μM in acetonitrile (ACN). The 20 mg/mL human liver microsomes were diluted to 0.625 mg/mL in 0.1 M potassium phosphate buffer, pH 7.4, containing 3 mM MgCl2. The diluted microsomes (375 μL) were added to wells of a 96-well deep-well polypropylene plate in triplicate. Ten μL of the 50 μM test compound solution was added to the microsomes and the mixture was pre-warmed for 10 minutes. Reactions were initiated by addition of 125 μL of pre-warmed NADPH solution (8 mM NADPH in 0.1M potassium phosphate buffer, pH 7.4, containing 3 mM MgCl2). […] The reaction mixtures were incubated at 37° C., and 50 μL aliquots were removed at 0, 5, 10, 20, and 30 minutes and added to shallow-well 96-well plates which contained […] of ice-cold ACN with internal standard to stop the reactions. The plates were stored at 4° C. for 20 minutes after which […] of water was added to the wells of the plate before centrifugation to pellet precipitated proteins. Supernatants were transferred to another 96-well plate and analyzed for amounts of parent remaining by LC-MS/MS using an Applied Bio-systems API 4000 mass spectrometer.
The in vitro t1/2s for test compounds were calculated from the slopes of the linear regression of % parent remaining (ln) vs incubation time relationship using the following formula:
in vitro t1/2=0.693/k, where k=−[slope of linear regression of % parent remaining(ln) vs incubation time]. Data analysis was performed using Microsoft Excel Software.

Row | Compound | differentiation of t1/2 (longer) as compared to udenafil | half-life at 1 µM
1 | [2H]C([2H])(CC1CCCN1C)NS(=O)(=O)c1ccc(OC([2H])([2H])C([2H])([2H])C([2H])([2H])[2H])c(-c2nc3c(CC([2H])([2H])C([2H])([2H])[2H])nn(C([2H])([2H])[2H])c3c(=O)[nH]2)c1 (stereo not shown) [Compound 210, 3-(1-(Methyl-d3)-7-oxo-3-(2,2,3,3,3-d5-propyl)-6,7-dihydro-1H-pyrazolo[4,3-d]pyrimidin-5-yl)-N-(2-(1-methylpyrrolidin-2-yl)-1,1-d2-ethyl)-4-(propoxy-d7)-benzenesulfonamide] | ~20% | 42.4 ± 3.74 min
2 | [2H]C([2H])([2H])n1nc(CCC)c2nc(-c3cc(S(=O)(=O)NCCC4CCCN4C)ccc3OCCC)[nH]c(=O)c21 (stereo not shown) [Compound 108] |  | 36.2 ± 1.5 min
3 | [2H]C([2H])(CC1CCCN1C)NS(=O)(=O)c1ccc(OCCC)c(-c2nc3c(CCC)nn(C([2H])([2H])[2H])c3c(=O)[nH]2)c1 (stereo not shown) [Compound 100] | ~20% | 41.3 ± 1.5 min
4 | CCCOc1ccc(S(=O)(=O)NCCC2CCCN2C)cc1-c1nc2c(CCC)nn(C)c2c(=O)[nH]1 (stereo not shown) [Udenafil, 3-(1-methyl-7-oxo-3-propyl-6,7-dihydro-1H-pyrazolo[4,3-d]pyrimidin-5-yl)-N-[2-(1-methylpyrrolidin-2-yl)ethyl]-4-propoxybenzenesulfonamide, reference compound] |  | 33.6 ± 2.2 min
5 | [2H]C([2H])(CC1CCCN1C)NS(=O)(=O)c1ccc(OCCC)c(-c2nc3c(CCC)nn(C)c3c(=O)[nH]2)c1 (stereo not shown) [Compound 103] |  | 37.2 ± 1.8 min
